pEC50, pKi: −log10 of the molar value. Calls of active or inactive are those of the source. The calls are words filed in the database; no cut-off is given here.
Assays:
[1] = biological target: T1, 5-hydroxytryptamine receptor 2A (Homo sapiens, UniProt P28223); assay: Displacement of [3H]LSD from human 5-HT2A receptor expressed in HEK293 cell membrane incubated for 90 mins by microbeta liquid scintillation counting method; type: cell membranes
[2] = AUClast in Wistar rat brain at 1 mg/kg, iv measured upto 48 hrs; type: ADME, organism-based
[3] = Ex vivo binding in C57BL/6J mouse brain frontal cortex assessed as specific binding [3H]Cimbi-36 at 1 mg/kg, sc measured after 40 mins by liquid scintillation counting analysis (reference value: 1092 +/- 53); type: functional
[4] = Ex vivo binding in C57BL/6J mouse brain frontal cortex assessed as inhibition of [3H]Cimbi-36 binding at 1 mg/kg, sc measured after 360 mins by liquid scintillation counting analysis (reference value: 0%); type: functional; conditions: 6 h
Mus musculus [5] = assay: Psychedelic effect in C57BL/6J mouse assessed as maximal number of 5-HT2A receptor dependent head-twitch responses by visual observation at 1 mg/kg, sc (reference value: 3); type: functional
[6] = Ex vivo binding in C57BL/6J mouse brain frontal cortex assessed as inhibition of [3H]Cimbi-36 binding at 1 mg/kg, sc measured after 5 mins by liquid scintillation counting analysis (reference value: 0%); type: functional
Mus musculus [7] = assay: Locomotor activity in C57BL/6J mouse assessed as distance traveled at 1 mg/kg, po measured for 15 to 25 mins (reference value: 1710 +/- 120 cm) by Ethovision tracking system; type: functional; conditions: time 15-25 min
[8] = biological target: 5-hydroxytryptamine receptor 2B (Homo sapiens, UniProt P41595); assay: Binding affinity to human [125I]LSD-labeled 5-HT2B receptor expressed in CHO cell membrane incubated for 60 mins; type: cell membranes
[9] = Cmax in Wistar rat brain at 1 mg/kg, iv measured upto 48 hrs; type: ADME, organism-based
[10] = Ex vivo binding in C57BL/6J mouse brain frontal cortex assessed as specific binding [3H]Cimbi-36 at 1 mg/kg, sc measured after 360 mins by liquid scintillation counting analysis (reference value: 1092 +/- 53); type: functional; conditions: 6 h
[11] = biological target: Alpha-2A adrenergic receptor (Homo sapiens) (UniProt P08913); assay: Agonist activity at human recombinant adrenergic alpha-2A receptor expressed in CHO-K1 cells co-transfected with 22F-Glosensor assessed as maximal inhibition of cAMP production measured after 30 mins incubation by Microbeta2Micro-plate counter analysis relative to clonidine; type: functional, cell-based; conditions: filed as agonist
[12] = biological target: T1, 5-hydroxytryptamine receptor 2A; assay: Agonist activity at human 5-HT2A receptor expressed in HEK293 cells assessed as maximal IP2 production measured after 30 mins incubation by HTRF assay relative to control; type: functional, cell-based; conditions: filed as agonist
Mus musculus [13] = assay: Locomotor activity in C57BL/6J mouse assessed as distance traveled at 3 mg/kg, po measured for 15 to 25 mins (reference value: 1710 +/- 120 cm) by Ethovision tracking system; type: functional; conditions: time 15-25 min
[14] = AUClast in Wistar rat plasma at 1 mg/kg, iv measured upto 48 hrs; type: ADME, organism-based
[15] = MRTinf in male Sprague-Dawley rat CSF at 1 mg/kg, iv measured upto 8 hrs by LC-MS/MS analysis; type: ADME, organism-based, Cerebrospinal fluid
[16] = AUCinf in beagle dog at 2 mg/kg, po measured upto 24 hrs; type: ADME, organism-based, Canis lupus familiaris; conditions: in vivo
Hippocampus [17] = assay: Induction of neuroplasticity in C57BL/6J mouse assessed as increase in SYN1 mRNA expression in brain hippocampus at 0.3 mg/kg, sc single dose by RT-PCR analysis; type: functional, organism-based
[18] = Drug metabolism in human hepatocytes at 10 uM by HRAMS analysis; type: ADME, cell-based, Hepatocyte
[19] = Metabolic stability in rat liver S9 fractions assessed as half life; type: ADME, subcellular; conditions: liver S9 fraction
[20] = Metabolic stability in human liver microsomes assessed as half life at 1 uM incubated for 120 mins in presence of NADPH; type: ADME, Microsome
[21] = Tmax in Wistar rat plasma at 5 mg/kg, po measured upto 48 hrs; type: ADME, organism-based
Hippocampus [22] = assay: Induction of neuroplasticity in C57BL/6J mouse assessed as increase in Homer1 mRNA expression in brain hippocampus at 0.3 mg/kg, sc single dose by RT-PCR analysis; type: functional, organism-based
Hippocampus [23] = assay: Induction of neuroplasticity in C57BL/6J mouse assessed as increase in EGR2 mRNA expression in brain hippocampus at 3 mg/kg, sc single dose by RT-PCR analysis; type: functional, organism-based
[24] = Cmax in Wistar rat plasma at 1 mg/kg, iv measured upto 48 hrs; type: ADME, organism-based
[25] = biological target: 5-hydroxytryptamine receptor 7 (Homo sapiens, UniProt P34969); assay: Displacement of [3H]LSD from 5-HT7 receptor (unknown origin) assessed as inhibition binding at 10 uM relative to control
[26] = Metabolic stability in mouse liver microsomes assessed as half life at 1 uM incubated for 120 mins in presence of NADPH; type: ADME, Microsome
[27] = AUClast in Wistar rat brain at 5 mg/kg, po measured upto 48 hrs; type: ADME, organism-based
[28] = Half life in Wistar rat plasma at 5 mg/kg, po measured upto 48 hrs; type: ADME, organism-based
Hippocampus [29] = assay: Induction of neuroplasticity in C57BL/6J mouse assessed as increase in SYN1 mRNA expression in brain hippocampus at 3 mg/kg, sc single dose by RT-PCR analysis; type: functional, organism-based
[30] = Initial plasma concentration in beagle dog at 0.4 mg/kg, iv measured upto 24 hrs; type: ADME, organism-based, Canis lupus familiaris
[31] = MRTinf in beagle dog at 0.4 mg/kg, iv measured upto 24 hrs; type: ADME, organism-based, Canis lupus familiaris; conditions: in vivo
[32] = biological target: 5-hydroxytryptamine receptor 5A (Homo sapiens) (UniProt P47898); assay: Binding affinity to human 5-HT5A receptor (unknown origin) at 10 uM by radioligand displacement assay
Hippocampus [33] = assay: Induction of neuroplasticity in C57BL/6J mouse assessed as increase in mTOR mRNA expression in brain hippocampus at 3 mg/kg, sc single dose by RT-PCR analysis; type: functional, organism-based
[34] = Ex vivo binding in C57BL/6J mouse brain frontal cortex assessed as specific binding [3H]Cimbi-36 at 1 mg/kg, sc measured after 160 mins by liquid scintillation counting analysis (reference value: 1092 +/- 53); type: functional; conditions: 2.667 h
[35] = Metabolic stability in human hepatocytes assessed as half life at 10 uM; type: ADME, cell-based, Hepatocyte
[36] = biological target: 5-hydroxytryptamine receptor 6 (Homo sapiens, UniProt P50406); assay: Displacement of [3H]LSD from 5-HT6 receptor (unknown origin) assessed as inhibition binding
[37] = Tmax in male Sprague-Dawley rat CSF at 1 mg/kg, iv measured upto 8 hrs by LC-MS/MS analysis; type: ADME, organism-based, Cerebrospinal fluid
[38] = biological target: T1, 5-hydroxytryptamine receptor 2A; assay: Agonist activity at human 5-HT2A receptor expressed in HEK293 cells assessed as IP2 production measured after 30 mins incubation by HTRF assay; type: functional, cell-based; conditions: read-out: EC50
[39] = Tmax in Wistar rat brain at 5 mg/kg, po measured upto 48 hrs; type: ADME, organism-based
[40] = Cmax in mouse C57BL/6J brain at 3 mg/kg, sc measured after 2 hrs; type: ADME, organism-based
[41] = Half life in beagle dog at 2 mg/kg, po measured upto 24 hrs; type: ADME, organism-based, Canis lupus familiaris; conditions: in vivo

T1 sequence (P28223 whole entry): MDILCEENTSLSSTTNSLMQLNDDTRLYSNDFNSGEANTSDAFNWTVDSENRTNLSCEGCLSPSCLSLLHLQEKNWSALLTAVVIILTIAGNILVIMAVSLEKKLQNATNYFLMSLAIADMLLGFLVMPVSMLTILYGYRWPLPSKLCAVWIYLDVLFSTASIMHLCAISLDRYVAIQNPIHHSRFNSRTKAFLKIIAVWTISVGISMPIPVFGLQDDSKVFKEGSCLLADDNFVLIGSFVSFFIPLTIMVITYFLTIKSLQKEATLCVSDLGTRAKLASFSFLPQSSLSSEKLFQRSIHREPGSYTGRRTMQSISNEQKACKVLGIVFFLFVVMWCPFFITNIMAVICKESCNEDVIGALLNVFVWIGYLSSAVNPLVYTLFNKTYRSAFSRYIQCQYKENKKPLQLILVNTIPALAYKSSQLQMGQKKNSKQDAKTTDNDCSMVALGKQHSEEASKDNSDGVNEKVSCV
5-hydroxytryptamine receptor 5A (Homo sapiens), sequence (P47898 whole entry): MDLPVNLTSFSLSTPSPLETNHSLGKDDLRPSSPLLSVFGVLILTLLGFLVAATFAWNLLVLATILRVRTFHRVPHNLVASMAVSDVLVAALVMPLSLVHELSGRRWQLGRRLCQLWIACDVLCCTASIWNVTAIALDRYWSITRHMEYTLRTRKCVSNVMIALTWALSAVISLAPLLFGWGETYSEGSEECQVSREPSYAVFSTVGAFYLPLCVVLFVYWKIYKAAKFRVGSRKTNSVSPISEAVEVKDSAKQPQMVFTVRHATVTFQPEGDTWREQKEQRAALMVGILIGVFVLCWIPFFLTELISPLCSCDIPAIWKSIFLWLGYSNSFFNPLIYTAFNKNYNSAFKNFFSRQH
5-hydroxytryptamine receptor 7, sequence (P34969 whole entry): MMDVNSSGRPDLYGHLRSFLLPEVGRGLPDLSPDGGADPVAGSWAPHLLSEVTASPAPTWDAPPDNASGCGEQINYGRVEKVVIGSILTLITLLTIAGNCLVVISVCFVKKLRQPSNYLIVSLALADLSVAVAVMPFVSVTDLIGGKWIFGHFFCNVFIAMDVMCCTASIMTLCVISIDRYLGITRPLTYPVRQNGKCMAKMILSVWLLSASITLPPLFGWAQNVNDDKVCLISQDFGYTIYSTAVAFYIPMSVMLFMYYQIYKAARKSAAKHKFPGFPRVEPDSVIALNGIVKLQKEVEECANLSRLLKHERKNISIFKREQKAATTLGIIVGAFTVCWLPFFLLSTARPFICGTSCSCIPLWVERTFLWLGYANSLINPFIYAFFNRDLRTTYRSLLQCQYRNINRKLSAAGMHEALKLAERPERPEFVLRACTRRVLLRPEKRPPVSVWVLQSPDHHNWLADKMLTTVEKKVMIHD
Alpha-2A adrenergic receptor (Homo sapiens), sequence (P08913 whole entry): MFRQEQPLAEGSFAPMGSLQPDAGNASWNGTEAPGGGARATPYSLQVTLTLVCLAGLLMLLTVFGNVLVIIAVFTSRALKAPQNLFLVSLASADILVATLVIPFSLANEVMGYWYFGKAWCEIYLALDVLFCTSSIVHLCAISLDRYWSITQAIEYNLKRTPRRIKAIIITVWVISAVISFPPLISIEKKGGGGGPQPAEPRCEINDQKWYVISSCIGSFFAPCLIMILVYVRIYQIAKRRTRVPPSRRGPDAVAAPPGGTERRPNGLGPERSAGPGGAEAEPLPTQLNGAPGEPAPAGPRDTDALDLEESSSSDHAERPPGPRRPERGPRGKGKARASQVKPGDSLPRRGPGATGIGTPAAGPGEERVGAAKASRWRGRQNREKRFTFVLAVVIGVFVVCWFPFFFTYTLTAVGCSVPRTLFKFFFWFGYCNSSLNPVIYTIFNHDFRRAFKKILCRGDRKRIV
5-hydroxytryptamine receptor 2B, sequence (P41595 whole entry): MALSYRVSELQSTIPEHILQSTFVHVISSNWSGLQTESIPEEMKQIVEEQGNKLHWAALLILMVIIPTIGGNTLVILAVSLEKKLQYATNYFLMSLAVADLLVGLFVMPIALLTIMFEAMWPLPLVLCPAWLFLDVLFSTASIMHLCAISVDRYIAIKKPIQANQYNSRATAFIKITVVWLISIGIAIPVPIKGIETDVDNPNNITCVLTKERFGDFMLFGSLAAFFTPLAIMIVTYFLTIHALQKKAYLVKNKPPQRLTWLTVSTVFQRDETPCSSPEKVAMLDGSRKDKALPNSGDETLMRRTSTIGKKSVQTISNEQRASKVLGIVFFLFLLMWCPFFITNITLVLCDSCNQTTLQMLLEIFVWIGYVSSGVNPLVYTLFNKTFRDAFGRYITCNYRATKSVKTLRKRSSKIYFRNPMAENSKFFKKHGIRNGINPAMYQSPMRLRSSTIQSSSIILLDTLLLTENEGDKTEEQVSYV
5-hydroxytryptamine receptor 6, sequence (P50406 whole entry): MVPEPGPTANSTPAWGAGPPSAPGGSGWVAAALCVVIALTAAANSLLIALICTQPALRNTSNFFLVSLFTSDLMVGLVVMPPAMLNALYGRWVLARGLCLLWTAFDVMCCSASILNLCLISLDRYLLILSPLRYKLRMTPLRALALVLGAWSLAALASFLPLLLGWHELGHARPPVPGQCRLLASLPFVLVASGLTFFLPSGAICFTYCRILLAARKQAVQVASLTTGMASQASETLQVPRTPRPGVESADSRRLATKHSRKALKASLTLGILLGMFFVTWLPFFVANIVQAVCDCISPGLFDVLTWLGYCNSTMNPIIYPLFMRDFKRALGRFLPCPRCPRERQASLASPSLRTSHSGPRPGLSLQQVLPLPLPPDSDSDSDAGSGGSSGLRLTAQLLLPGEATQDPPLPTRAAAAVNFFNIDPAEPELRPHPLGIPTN

SMILES: COc1cc([Se]C(F)(F)F)c(OC)cc1CCN.Cl
- pKi ([1]; read-out: Ki): 8.49
- Ki ([1]; read-out: pKi (converted)): 3.02 nM
- AUC(0-t) at 48 h [2]: 2910 ng·h/mL
- Activity [3]: 732
- inhibition in vivo at 1 mg/kg [4]: 25%
- Activity (Mus musculus [5]): 17
- inhibition in vivo at 1 mg/kg [6]: 13%
- Activity (Mus musculus [7]): 2602 cm
- pKi [8]: 8.00
- Cmax [9]: 890 ng/mL
- Activity [10]: 820
- Emax [11]: 56%
- Emax [12]: 87%
- Activity (Mus musculus [13]): 3008 cm
- AUC(0-t) at 48 h [14]: 42.2 ng·h/mL
- MRT inf [15]: 1.51 h
- AUC(0-inf) [16]: 2970 ng·h/mL
- Activity (Hippocampus [17]): inactive
- Drug metabolism [18]: Metabolite_Notdetected
- half-life [19]: 1.27 h
- half-life at 1 µM [20]: > 2 h
- Tmax [21]: 0.5 h
- Activity (Hippocampus [22]): inactive
- Activity (Hippocampus [23]): inactive
- Cmax [24]: 54.1 ng/mL
- inhibition [25]: 86%
- half-life at 1 µM [26]: > 2 h
- AUC(0-t) at 48 h [27]: 1860 ng·h/mL
- half-life [28]: 3.53 h
- Activity (Hippocampus [29]): inactive
- C0 at 24 h [30]: 121 ng/mL
- MRT inf [31]: 5.58 h
- Activity [32]: inactive
- Activity (Hippocampus [33]): inactive
- Activity [34]: 736
- half-life at 10 µM [35]: 16 h
- pKi [36]: 5.89
- Tmax [37]: 4.98 min
- pEC50 [38]: 8.44
- Tmax [39]: 2 h
- Cmax [40]: 3160 ng/g
- half-life [41]: 6.78 h
